From US20240150293A1, “SPIROCYCLOHEXANE DERIVATIVES, PHARMACEUTICAL COMPOSITIONS CONTAINING THEM AND THEIR USES AS ANTI-APOPTOTIC INHIBITORS” (LES LABORATOIRES SERVIER, priority 2021, published 2024)
Like-named read-outs stand apart in the source and are kept apart here.

How the values were obtained:
[1] = target: Cy5-labelled Mcl1 (amino acids 171-321) C286S protein (UniProtKB Q07820) (Homo sapiens (Human), UniProt Q07820, C286S); assay: Inhibition of Mcl-1 by the fluorescence quenching assay (Example A, Method B); format: binding
In short: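 Eleven-point compound series incubated 2 h at room temperature with 1 nM Cy5-tagged protein and quencher-labelled PUMA peptide at 10, 20 or 400 nM in HEPES/NaCl/Tween 20, pH 7.4, 5% DMSO. IC50 for 50% fluorescence increase by 4-parameter fit, then Ki derived (complete cKi or estimated eKi).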

[2] = test system: NCI-H929 cell lines; assay: In vitro cytotoxicity, CellTiter-Glo (CTG) assay (Example B, Method B); format: cell-based; details: NCI-H929 cells, 48 h incubation, read-out: C50
In short: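 ATP-based luminescence (CellTiter-Glo) after 48 h incubation at 37° C., 5% CO2 gave NCI-H929 viability. Eleven concentrations tested, highest final 30 μM, dispensed acoustically from 10 mM DMSO stocks; C50 defined as concentration reaching 50% viability.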

Cy5-labelled Mcl1 (amino acids 171-321) C286S protein, sequence (Q07820 171-321 C286S): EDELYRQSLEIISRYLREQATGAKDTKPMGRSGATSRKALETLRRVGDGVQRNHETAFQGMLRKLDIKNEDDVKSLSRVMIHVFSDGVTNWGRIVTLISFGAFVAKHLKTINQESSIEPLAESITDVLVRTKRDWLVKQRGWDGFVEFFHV

SMILES	Ki [1]	Ki ([1]; Ki determined from IC50)	IC50 ([2]; Homo sapiens, NCI-H929, 48 h)	IC50 [2]
CC[C@H]1COc2cc3c(cc2O1)C[C@H](C[C@@H](C)COc1ccnc2c1[C@H](C)CCC2)[C@]31CC[C@](Nc2cccc(Cl)c2)(C(=O)O)CC1 [Example 978, (1r,2′S,4S,7′S)-4-(3-chloroanilino)-2′-ethyl-7′-[(2R)-2-methyl-3-{[(5R)-5-methyl-5,6,7,8-tetrahydroquinolin-4-yl]oxy}propyl]-2′,3′,7′,8′-tetrahydrospiro[cyclohexane-1,6′-indeno[5,6-b][1,4]dioxine]-4-carboxylic acid]	0.0831 nM	–	164 nM	–
COCc1cc2c(cc1F)CN(C[C@@H](C)COc1ccnc3c1[C@H](C)CCC3)[C@]21CC[C@](Nc2cccc(Cl)c2)(C(=O)O)CC1 [Example 51, (1s,4S)-4-(3-chloroanilino)-5′-fluoro-6′-(methoxymethyl)-2′-[(2R)-2-methyl-3-{[(5R)-5-methyl-5,6,7,8-tetrahydroquinolin-4-yl]oxy}propyl]-2′,3′-dihydrospiro[cyclohexane-1,1′-isoindole]-4-carboxylic acid]	–	0.0762 nM	37.7 nM	–
CC[C@H]1COc2cc3c(cc2O1)[C@]1(CC[C@@](Nc2cccc(Cl)c2)(C(=O)O)CC1)[C@@H](C[C@@H](C)COc1ccnc2c1[C@H](C)CCC2)C3 [Example 977, (1r,3'S,4S,7′S)-4-(3-chloroanilino)-3′-ethyl-7′-[(2R)-2-methyl-3-{[(5R)-5-methyl-5,6,7,8-tetrahydroquinolin-4-yl]oxy}propyl]-2′,3′,7′,8′-tetrahydrospiro[cyclohexane-1,6′-indeno[5,6-b][1,4]dioxine]-4-carboxylic acid]	0.0231 nM	–	56 nM	–
CCC1COc2cc3c(cc2OC1)[C@]1(CC[C@@](Nc2cccc(Cl)c2)(C(=O)O)CC1)[C@@H](C[C@@H](C)COc1ccnc2c1[C@H](C)CCC2)C3 (single isomer, unassigned) [Example 988]	0.0323 nM	–	–	204 nM
C[C@@H](COc1ccnc2c1[C@H](C)CCC2)C[C@H]1Cc2cc(Cl)c(OC3CCCC3)cc2[C@]12CC[C@@](Nc1cccc(Cl)c1)(C(=O)O)CC2 [Example 821, (1r,2′S,4S)-5′-chloro-4-(3-chloroanilino)-6′-(cyclopentyloxy)-2′-[(2R)-2-methyl-3-{[(5R)-5-methyl-5,6,7,8-tetrahydroquinolin-4-yl]oxy}propyl]-2′,3′-dihydrospiro[cyclohexane-1,1′-indene]-4-carboxylic acid]	0.408 nM	–	536 nM	–

Now from value to molecule, other results behind:

Ki [1]	Ki ([1]; Ki determined from IC50)	SMILES	IC50 ([2]; Homo sapiens, NCI-H929, 48 h)	IC50 [2]
1.19 nM	–	CC(=O)c1cc(C)c2c(c1)[C@]1(CC[C@@](Nc3cccc(Cl)c3)(C(=O)O)CC1)C(C[C@@H](C)COc1ccnc3c1[C@H](C)CCC3)C2 (single isomer, unassigned) [Example 758]	–	97.2 nM
0.0783 nM	–	CCOc1cc2c(cc1F)C[C@H](C[C@@H](C)COc1ccnc3c1[C@H](C)CCC3)[C@]21CC[C@](Nc2cccc(Cl)c2)(C(=O)O)CC1 [Example 818, (1r,2′S,4S)-4-(3-chloroanilino)-6′-ethoxy-5′-fluoro-2′-[(2R)-2-methyl-3-{[(5R)-5-methyl-5,6,7,8-tetrahydroquinolin-4-yl]oxy}propyl]-2′,3′-dihydrospiro[cyclohexane-1,1′-indene]-4-carboxylic acid]	106 nM	–
0.102 nM	–	CC[C@@H]1COc2cc3c(cc2O1)C[C@H](C[C@@H](C)COc1ccnc2c1[C@H](C)CCC2)[C@]31CC[C@](Nc2cccc(Cl)c2)(C(=O)O)CC1 [Example 980, (1r,2′R,4S,7′S)-4-(3-chloroanilino)-2′-ethyl-7′-[(2R)-2-methyl-3-{[(5R)-5-methyl-5,6,7,8-tetrahydroquinolin-4-yl]oxy}propyl]-2′,3′,7′,8′-tetrahydrospiro[cyclohexane-1,6′-indeno[5,6-b][1,4]dioxine]-4-carboxylic acid]	142 nM	–
0.0375 nM	–	CC(O)c1ccc2c(c1)[C@]1(CC[C@@](Nc3cccc(Cl)c3)(C(=O)O)CC1)[C@@H](C[C@@H](C)COc1ccnc3c1[C@H](C)CCC3)C2 (single isomer, unassigned) [Example 859]	–	43.7 nM
